The values that follow are results of earlier work, collected in patent publication US9775855B2, “Compositions comprising macrolide and tetracycline and their uses” (priority 2011, dated 2017).

Assay in series [1]: not given
The source holds these as a separate data set.

The conditions of series [2]: individuals treated for acne for an average of 9 months.
The conditions of series [3]: room temperature.

Where two headings read alike, the source gives them in different places.

Take `NNC(=O)c1ccncc1` [Isoniazid, 4-pyridinecarboxylic acid, hydrazide]: the solubility in water entry is “freely soluble”.

Take `CN(C)c1ccc(O)c2c1C[C@H]1C[C@H]3[C@H](N(C)C)C(O)=C(C(N)=O)C(=O)[C@@]3(O)C(O)=C1C2=O` [Minocycline]: in series [1] (human beings, compared with doxycycline and other tetracyclines), the “penetration of the cerebral spinal fluid (CSF)” value is “better than doxycycline and other tetracyclines”. Besides, the “crossing the blood-brain barrier” value in series [1] (in vivo) is reported as “capable of crossing the blood-brain barrier”. The “frequency of adverse events” value in series [2] was “one in a million”.

`NC(=O)c1cnccn1` [Pyrazinamide, pyrazinecarboxamide]: the solubility in water result is given as “sparingly soluble”. The stability result in series [3] was “stable at room temperature”.

Regarding `CO[C@H]1/C=C/O[C@@]2(C)Oc3c(C)c(O)c4c(O)c(c(/C=N/N5CCN(C)CC5)c(O)c4c3C2=O)NC(=O)/C(C)=C\C=C\[C@H](C)[C@H](O)[C@@H](C)[C@@H](O)[C@@H](C)[C@H](OC(C)=O)[C@@H]1C` [Rifampin, 3-[[(4-methyl-1-piperazinyl)imino]-methyl]-rifamycin], for the setting “at neutral pH”, the solubility in water entry is reported as “very slightly soluble”.
